Data reported in the supplement of paper PMC10307832.

Columns and labels:
Experiment in all cases: relative viability (nuclei count vs DMSO), 5 days (fraction); higher = more cells survive
BI-2536 + Alpelisib = compound: CC[C@@H]1C(=O)N(C)c2cnc(Nc3ccc(C(=O)NC4CCN(C)CC4)cc3OC)nc2N1C1CCCC1 [BI-2536] + Cc1nc(NC(=O)N2CCC[C@H]2C(N)=O)sc1-c1ccnc(C(C)(C)C(F)(F)F)c1 [Alpelisib] (partner 2 µM)
Procedure, shortened: (§1)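 Relative viability was taken as the ratio of nuclei in treated wells to nuclei in vehicle wells. Lung cancer cell lines in 1536-well plates received compounds by pin tool one day after seeding, either one drug alone or a fixed anchor-drug dose plus five library-drug doses (not always all listed) in √10 steps. Nuclei were counted on 4× images after 5 days of treatment, and values are medians of duplicate plates.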

BI-2536 + Tozasertib = compound: CC[C@@H]1C(=O)N(C)c2cnc(Nc3ccc(C(=O)NC4CCN(C)CC4)cc3OC)nc2N1C1CCCC1 [BI-2536] + Cc1cc(Nc2cc(N3CCN(C)CC3)nc(Sc3ccc(NC(=O)C4CC4)cc3)n2)n[nH]1 [Tozasertib] (partner 0.1 µM)
Procedure, shortened: as §1

BI-2536 + Palbociclib = compound: CC[C@@H]1C(=O)N(C)c2cnc(Nc3ccc(C(=O)NC4CCN(C)CC4)cc3OC)nc2N1C1CCCC1 [BI-2536] + CC(=O)c1c(C)c2cnc(Nc3ccc(N4CCNCC4)cn3)nc2n(C2CCCC2)c1=O [Palbociclib] (partner 0.5 µM)
Procedure, shortened: as §1

BI-2536 + Phenformin = compound: CC[C@@H]1C(=O)N(C)c2cnc(Nc3ccc(C(=O)NC4CCN(C)CC4)cc3OC)nc2N1C1CCCC1 [BI-2536] + N=C(N)NC(=N)NCCc1ccccc1 [Phenformin] (partner 250 µM)
Procedure, shortened: as §1

Cell Line | relative viability (BI-2536 + Alpelisib; first compound 0.01 µM) | relative viability (BI-2536 + Alpelisib; first compound 0.03162 µM) | relative viability (BI-2536 + Alpelisib; first compound 0.1 µM) | relative viability (BI-2536 + Alpelisib; first compound 0.3162 µM) | relative viability (BI-2536 + Alpelisib; first compound 1 µM) | relative viability (BI-2536 + Tozasertib; first compound 0.01 µM) | relative viability (BI-2536 + Tozasertib; first compound 0.03162 µM) | relative viability (BI-2536 + Tozasertib; first compound 0.1 µM) | relative viability (BI-2536 + Tozasertib; first compound 0.3162 µM) | relative viability (BI-2536 + Tozasertib; first compound 1 µM) | relative viability (BI-2536 + Palbociclib; first compound 0.01 µM) | relative viability (BI-2536 + Palbociclib; first compound 0.03162 µM) | relative viability (BI-2536 + Palbociclib; first compound 0.1 µM) | relative viability (BI-2536 + Palbociclib; first compound 0.3162 µM) | relative viability (BI-2536 + Palbociclib; first compound 1 µM) | relative viability (BI-2536 + Phenformin; first compound 0.01 µM) | relative viability (BI-2536 + Phenformin; first compound 0.03162 µM) | relative viability (BI-2536 + Phenformin; first compound 0.1 µM) | relative viability (BI-2536 + Phenformin; first compound 0.3162 µM) | relative viability (BI-2536 + Phenformin; first compound 1 µM)
PC-3 [JPC-3] | 1.13 | 0.978 | 0.871 | 0.264 | 0.24 | 0.889 | 0.693 | 0.707 | 0.289 | 0.313 | 0.54 | 0.828 | 0.5 | 0.416 | 0.424 | 0.477 | 0.461 | 0.271 | 0.202 | 0.176
NCI-H650 | 1.02 | 0.778 | 0.437 | 0.218 | 0.127 | 0.64 | 0.529 | 0.358 | 0.181 | 0.16 | 0.315 | 0.274 | 0.294 | 0.187 | 0.138 | 0.462 | 0.438 | 0.163 | 0.154 | 0.14
NCI-H838 | 0.967 | 1 | 0.661 | 0.124 | 0.144 | 0.239 | 0.269 | 0.241 | 0.229 | 0.225 | 0.214 | 0.202 | 0.199 | 0.0979 | 0.0994 | 0.571 | 0.329 | 0.116 | 0.116 | 0.105
COR-L 105 | 0.744 | 1.07 | 0.817 | 0.252 | 0.26 | 0.351 | 0.408 | 0.299 | 0.306 | 0.333 | 0.422 | 0.392 | 0.353 | 0.297 | 0.351 | 0.507 | 0.483 | 0.311 | 0.215 | 0.21
NCI-H2405 | 0.665 | 0.408 | 0.374 | 0.132 | 0.365 | 0.73 | 0.566 | 0.381 | 0.296 | 0.33 | 0.514 | 0.509 | 0.359 | 0.284 | 0.349 | 0.378 | 0.377 | 0.321 | 0.153 | 0.243
NCI-H1395 | 0.958 | 0.502 | 0.43 | 0.499 | 0.369 | 0.668 | 0.729 | 0.642 | 0.399 | 0.285 | 0.574 | 0.516 | 0.339 | 0.347 | 0.375 | 0.439 | 0.444 | 0.293 | 0.279 | 0.316
NCI-H661 | 0.149 | 0.577 | 0.619 | 0.216 | 0.24 | 0.367 | 0.373 | 0.384 | 0.316 | 0.31 | 0.403 | 0.372 | 0.331 | 0.209 | 0.225 | 0.263 | 0.224 | 0.216 | 0.198 | 0.206
NCI-H1915 | 1.05 | 0.977 | 0.812 | 0.129 | 0.0999 | 0.486 | 0.292 | 0.232 | 0.171 | 0.166 | 0.424 | 0.546 | 0.426 | 0.0999 | 0.0968 | 0.351 | 0.328 | 0.12 | 0.0657 | 0.0862
CAL-12T | 1.13 | 1.07 | 1.08 | 0.173 | 0.141 | 0.291 | 0.294 | 0.2 | 0.194 | 0.186 | 0.431 | 0.351 | 0.249 | 0.127 | 0.132 | 0.543 | 0.422 | 0.289 | 0.134 | 0.115
LXF-289 | 1.02 | 0.975 | 0.519 | 0.0396 | 0.0625 | 0.216 | 0.214 | 0.206 | 0.0925 | 0.11 | 0.612 | 0.583 | 0.587 | 0.116 | 0.116 | 0.467 | 0.488 | 0.159 | 0.0389 | 0.039
NCI-H460 | 0.523 | 0.481 | 0.0303 | 0.0093 | 0.0065 | 0.367 | 0.477 | 0.336 | 0.0323 | 0.0403 | 0.264 | 0.15 | 0.14 | 0.0134 | 0.0152 | 0.524 | 0.409 | 0.0506 | 0.0146 | 0.0134
NCI-H1944 | 0.895 | 0.892 | 0.679 | 0.192 | 0.164 | 0.25 | 0.268 | 0.234 | 0.234 | 0.195 | 0.304 | 0.329 | 0.308 | 0.173 | 0.15 | 0.206 | 0.243 | 0.122 | 0.0925 | 0.113
NCI-H2009 | 1.15 | 1.01 | 0.581 | 0.236 | 0.191 | 0.769 | 0.667 | 0.459 | 0.321 | 0.23 | 0.195 | 0.171 | 0.119 | 0.142 | 0.0906 | 0.468 | 0.406 | 0.233 | 0.183 | 0.105
